In experiment [1] the target is PHD2 enzyme (residues 181-417) (Homo sapiens (Human), UniProt Q9GZT9). As to the kind of experiment: Inhibition of PHD enzyme (LC/MS peptide hydroxylation assay). Format: biochemical. As to conditions: PHD2 (residues 181-417) 5 nM, 60 min pre-incubation; -log(IC50), IC50 molar. The procedure:
Example A Inhibition of PHD Enzyme
The IC50 values for the PHD2 enzyme (residues 181-417) were determined by mixing increasing amounts of inhibitor with a fixed amount of enzyme (5 nM, final concentration) and Biotin labeled peptide (Biotin-Asp-Leu-Glu-Met-Leu-Ala-Pro-Tyr-Ile-Pro-Met-Asp-Asp-Asp-Phe-Gln-Leu, 1 uM final concentration) and 2-Oxyglutarate (2 uM final concentration) in 50 mM HEPES, 50 mM KCl, 0.5 mM TCEP, 2 uM FeCl2, 0.1 mg/ml BSA, at pH 7.3. The reaction was conducted by pre-incubating the enzyme in the presence of inhibitor for 60 min at room temperature. The activity of the free enzyme was measured by adding the peptide, the 2-Oxoglutarate (see above for final concentrations), and Ascorbic Acid (1 mM final concentration). The enzymatic activity was quenched after 60 min by adding an excess of a tight binding inhibitor to the assay mixture. The amount of product released was measured by using a LC/MS system (Agilent HPLC with Applied Biosystems API3000 Mass Spectrometer). Data were analyzed using the classical isotherm equation for the determination of IC50 values and are pIC50, i.e., −log(IC50), where IC50 is molar concentration and are reported as pIC50, i.e., −log(IC50), where IC50 is molar concentration.

Experiment [2] deals with HIF1a protein in H9c2 rat cardiomyocytes. Put plainly: Cell-based HIF-alpha stabilization assay (inhibition of PHD in cells). The note with it: Rattus norvegicus, H9c2, 24 h, 24 hrs compound incubation, HIF1a protein by ELISA, read-out: Inhibition of PHD in cells (pEC50) (converted). As for the experimental part: Example B Inhibition of PHD in Cells
PHD Inhibition is Determined Using (Secondary Assay)
Cell-Based HIF-Alpha Stabilization Assay:
H9c2 rat cardiomyocytes (ATCC) were seeded in 96-well tissue culture microplates and cultured for 24 hours prior to addition of compounds (11 point range of serial dilutions) or dimethylsulfoxide vehicle. After 24 hrs of compound incubation, whole cell extracts were prepared by lysing cells in cell extraction buffer containing protease and phosphatase inhibitors (Meso-Scale Discovery). HIF1a protein content was assessed by ELISA (Meso-Scale Discovery) and expressed as a % relative to the maximum response obtained from the positive control, desferrioxamine (Sigma-Aldrich). Compound EC50s were obtained by curve-fitting using XLfit4 MicroSoft Excel curve-fitting software. Compound EC50pos were obtained using XLfit4 to calculate the compound concentration that results in 50% of the desferrioxamine maximum response.
Background: In an ELISA, binding on a coated surface is turned into a signal by an enzyme label.

SMILES strings stand for the structures.

PHD2 enzyme (residues 181-417), sequence (Q9GZT9 181-417): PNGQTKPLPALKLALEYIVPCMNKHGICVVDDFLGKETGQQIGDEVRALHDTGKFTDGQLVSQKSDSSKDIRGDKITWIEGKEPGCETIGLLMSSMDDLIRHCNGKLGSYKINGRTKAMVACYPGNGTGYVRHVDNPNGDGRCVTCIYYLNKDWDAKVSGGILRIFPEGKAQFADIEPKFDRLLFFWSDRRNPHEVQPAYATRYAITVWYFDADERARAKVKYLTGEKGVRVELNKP

In the case of `Cc1cc(C#N)ccc1-c1cnn(-c2ccc(C(=O)N3CCC(CN(C)C)C3)cn2)c1O` (stereo not shown) [Example 349, 4-(1-(5-(3-((dimethylamino)methyl)pyrrolidine-1-carbonyl)pyridin-2-yl)-5-hydroxy-1H-pyrazol-4-yl)-3-methylbenzonitrile], in experiment [1], the “PHD Inhibition (pIC50)” value amounted to 7.77. For the same compound, in experiment [2], the EC50 is 0.479 µM. In the case of `Cn1ccc(-c2cnn(-c3ccc(C(=O)NCC4CCOCC4)cn3)c2O)cc1=O` [Example 211, 6-(5-hydroxy-4-(1-methyl-2-oxo-1,2-dihydropyridin-4-yl)-1H-pyrazol-1-yl)-N-((tetrahydro-2H-pyran-4-yl)methyl)nicotinamide], the “PHD Inhibition (pIC50)” value in experiment [1] is listed as 6.47. In experiment [2], the EC50 is 50.1 µM.

Regarding `Cc1cc(C#N)ccc1-c1cnn(-c2ccc(C(=O)NC3(C)CC3)cn2)c1O` [Example 61, 6-(4-(4-cyano-2-methylphenyl)-5-hydroxy-1H-pyrazol-1-yl)-N-(1-methylcyclopropyl)nicotinamide], in experiment [1], the “PHD Inhibition (pIC50)” value is listed as 7.19. The EC50 in experiment [2] is 0.0794 µM. As for `COC1CCN(C(=O)c2ccc(-n3ncc(-c4ccc(C#N)c(F)c4C)c3O)nc2)CC1` [Example 316, 2-fluoro-4-(5-hydroxy-1-(5-(4-methoxypiperidine-1-carbonyl)pyridin-2-yl)-1H-pyrazol-4-yl)-3-methylbenzonitrile], in experiment [1], the “PHD Inhibition (pIC50)” value stood at 8.31. The EC50 in experiment [2] was 1.29 µM. The like results for `N#Cc1ccc(-c2cnn(-c3ccc(C(=O)NCc4ccccc4)cn3)c2O)cc1F` [Example 188, N-benzyl-6-(4-(4-cyano-3-fluorophenyl)-5-hydroxy-1H-pyrazol-1-yl)nicotinamide] were, in that order, 7.3 and 5.25 µM. As to `N#Cc1ccc(-c2cnn(-c3ccc(C(=O)NCCCOCC4CC4)cn3)c2O)cc1` [Example 118, 6-(4-(4-cyanophenyl)-5-hydroxy-1H-pyrazol-1-yl)-N-(3-(cyclopropylmethoxy)propyl)nicotinamide], in experiment [1], the “PHD Inhibition (pIC50)” value is given as 7.36. Further, the EC50 in experiment [2] was 0.316 µM. Consider `COCCCN(C)C(=O)c1ccc(-n2ncc(-c3ccc(C#N)c(F)c3C)c2O)nc1` [Example 326, 6-(4-(4-cyano-3-fluoro-2-methylphenyl)-5-hydroxy-1H-pyrazol-1-yl)-N-(3-methoxypropyl)-N-methylnicotinamide], for which the “PHD Inhibition (pIC50)” value in experiment [1] worked out at 8.33. Moreover, the EC50 in experiment [2] is 0.49 µM.

With `COc1cc(-c2cnn(-c3ccc(C(=O)N[C@H]4CC[C@H](O)CC4)cn3)c2O)ccn1` [Example 167, 6-(5-hydroxy-4-(2-methoxypyridin-4-yl)-1H-pyrazol-1-yl)-N-((1r,4r)-4-hydroxycyclohexyl)nicotinamide], the “PHD Inhibition (pIC50)” value in experiment [1] was 7.46. Also, in experiment [2], the EC50 is 0.282 µM. For `Cc1cc(C#N)ccc1-c1cnn(-c2ccc(C(=O)N3CCN(CC(F)F)CC3)cn2)c1O` [Example 311, 4-(1-(5-(4-(2,2-difluoroethyl)piperazine-1-carbonyl)pyridin-2-yl)-5-hydroxy-1H-pyrazol-4-yl)-3-methylbenzonitrile], the “PHD Inhibition (pIC50)” value in experiment [1] worked out at 8.51. Besides, the EC50 in experiment [2] is 1.48 µM. On to `CCN1CCC(NC(=O)c2ccc(-n3ncc(-c4ccc(C#N)cc4C)c3O)nc2)CC1` [Example 98, 6-(4-(4-cyano-2-methylphenyl)-5-hydroxy-1H-pyrazol-1-yl)-N-(1-ethylpiperidin-4-yl)nicotinamide], for which the “PHD Inhibition (pIC50)” value in experiment [1] is on record as 7.9. Also, in experiment [2], the EC50 is 0.12 µM. For `Cc1cc(C#N)ccc1-c1cnn(-c2ccc(C(=O)NC(C)(C)CN(C)C)cn2)c1O` [Example 187, 6-(4-(4-cyano-2-methylphenyl)-5-hydroxy-1H-pyrazol-1-yl)-N-(1-(dimethylamino)-2-methylpropan-2-yl)nicotinamide], the “PHD Inhibition (pIC50)” value in experiment [1] was 7.8. In experiment [2], the EC50 was 0.355 µM. The matching figures for `Cc1cc(C#N)ccc1-c1cnn(-c2ccc(C(=O)NCCCN(C)C)cn2)c1O` [Example 95, 6-(4-(4-cyano-2-methylphenyl)-5-hydroxy-1H-pyrazol-1-yl)-N-(3-(dimethylamino)propyl)nicotinamide]: 7.9 and 0.0832 µM. As to `Cc1cc(C#N)ccc1-c1cnn(-c2ccc(C(=O)NC3CCN(CC(F)(F)F)CC3)cn2)c1O` [Example 302, 6-(4-(4-cyano-2-methylphenyl)-5-hydroxy-1H-pyrazol-1-yl)-N-(1-(2,2,2-trifluoroethyl)piperidin-4-yl)nicotinamide], in experiment [1], the “PHD Inhibition (pIC50)” value amounted to 8.41. In addition, in experiment [2], the EC50 is 0.288 µM. The like results for `COCC(C)NC(=O)c1ccc(-n2ncc(-c3ccc(C#N)cc3C)c2O)nc1` (stereo not shown) [Example 136, 6-(4-(4-cyano-2-methylphenyl)-5-hydroxy-1H-pyrazol-1-yl)-N-(1-methoxypropan-2-yl)nicotinamide] were, in that order, 7.13 and 0.112 µM. Consider `Cc1cc(C#N)ccc1-c1cnn(-c2ccc(C(=O)N3CCN(C4CC4)[C@@H](C)C3)cn2)c1O` [Example 389, (S)-4-(1-(5-(4-cyclopropyl-3-methylpiperazine-1-carbonyl)pyridin-2-yl)-5-hydroxy-1H-pyrazol-4-yl)-3-methylbenzonitrile], for which, in experiment [1], the “PHD Inhibition (pIC50)” value is 8.20. Also, the EC50 in experiment [2] was 1.15 µM. The like results for `Cc1c(-c2cnn(-c3ccc(C(=O)N4CCN(C)[C@H](C)C4)cn3)c2O)ccc(C#N)c1F` [Example 340, (R)-4-(1-(5-(3,4-dimethylpiperazine-1-carbonyl)pyridin-2-yl)-5-hydroxy-1H-pyrazol-4-yl)-2-fluoro-3-methylbenzonitrile] were, in that order, 8.39 and 0.759 µM. For `COCCCNC(=O)c1ccc(-n2ncc(-c3ccc(C#N)cc3OC)c2O)nc1` [Example 231, 6-(4-(4-cyano-2-methoxyphenyl)-5-hydroxy-1H-pyrazol-1-yl)-N-(3-methoxypropyl)nicotinamide], the “PHD Inhibition (pIC50)” value in experiment [1] stood at 6.95. The EC50 in experiment [2] is 0.372 µM. As to `N#Cc1ccc(-c2cnn(-c3ccc(C(=O)N4CCC(N5CCOCC5)C4)cn3)c2O)cc1` (stereo not shown) [Example 351, 4-(5-hydroxy-1-(5-(3-morpholinopyrrolidine-1-carbonyl)pyridin-2-yl)-1H-pyrazol-4-yl)benzonitrile], in experiment [1], the “PHD Inhibition (pIC50)” value was determined as 7.67. In addition, the EC50 in experiment [2] was 5.37 µM.

With `Cc1cc(C#N)ccc1-c1cnn(-c2ccc(C(=O)N3CCC(N4CCOCC4)CC3)cn2)c1O` [Example 421, 4-(5-hydroxy-1-(5-(4-morpholinopiperidine-1-carbonyl)pyridin-2-yl)-1H-pyrazol-4-yl)-3-methylbenzonitrile], the “PHD Inhibition (pIC50)” value in experiment [1] is on record as 8.31. Moreover, the EC50 in experiment [2] was 0.661 µM.

For the compound `CCN1CCN(C(=O)c2ccc(-n3ncc(-c4ccc(C#N)c(F)c4C)c3O)nc2)[C@H](C)C1` [Example 330, (R)-4-(1-(5-(4-ethyl-2-methylpiperazine-1-carbonyl)pyridin-2-yl)-5-hydroxy-1H-pyrazol-4-yl)-2-fluoro-3-methylbenzonitrile], in experiment [1], the “PHD Inhibition (pIC50)” value came to 8.34. In experiment [2], the EC50 was 0.407 µM. Take `Cc1cc(C#N)ccc1-c1cnn(-c2ccc(C(=O)NCCCn3ccnc3)cn2)c1O` [Example 106, N-(3-(1H-imidazol-1-yl)propyl)-6-(4-(4-cyano-2-methylphenyl)-5-hydroxy-1H-pyrazol-1-yl)nicotinamide]: the “PHD Inhibition (pIC50)” value in experiment [1] amounted to 8. Further, the EC50 in experiment [2] is 0.355 µM.

Take `COc1cc(-c2cnn(-c3ccc(C(=O)NCCC4CCCN4C)cn3)c2O)ccn1` (stereo not shown) [Example 23, 6-(5-hydroxy-4-(2-methoxypyridin-4-yl)-1H-pyrazol-1-yl)-N-(2-(1-methylpyrrolidin-2-yl)ethyl)nicotinamide]: the EC50 in experiment [2] is 1 µM. For `COc1cc(-c2cnn(-c3ccc(C(=O)NCCC4CCOCC4)cn3)c2O)ccn1` [Example 11, 6-(5-hydroxy-4-(2-methoxypyridin-4-yl)-1H-pyrazol-1-yl)-N-(2-(tetrahydro-2H-pyran-4-yl)ethyl)nicotinamide], the EC50 in experiment [2] was 0.537 µM. Regarding `CN1CCC(NC(=O)c2ccc(-n3ncc(-c4ccc(C#N)cc4)c3O)nc2)CC1=O` (stereo not shown) [Example 82, 6-(4-(4-cyanophenyl)-5-hydroxy-1H-pyrazol-1-yl)-N-(1-methyl-2-oxopiperidin-4-yl)nicotinamide], in experiment [2], the EC50 is 4.79 µM. Regarding `COc1cc(-c2cnn(-c3ccc(C(=O)NCCCN4CCCC4)cn3)c2O)ccn1` [Example 19, 6-(5-hydroxy-4-(2-methoxypyridin-4-yl)-1H-pyrazol-1-yl)-N-(3-(pyrrolidin-1-yl)propyl)nicotinamide], in experiment [2], the EC50 is 1.38 µM.

The record behind these values is patent US10407409B2, “6-(5-hydroxy-1H-pyrazol-1-yl)nicotinamide inhibitors of PHD” (Takeda Pharmaceutical Company Limited, priority 2013, dated 2019).
